In publication PMC9743090, “Induction of Ferroptosis in Glioblastoma and Ovarian Cancers by a New Pyrrole Tubulin Assembly Inhibitor” (Journal of Medicinal Chemistry, 2022):

Experiments:
SKOV-3 = experiment: In vivo SKOV-3 xenograft, tumor size and tumor tissue analysis; parameters: species or system BALB/C^nu/nu mice
Description: (§1) Briefly, all 10 week-old female BALB/C^nu/nu mice (24 mice) were purchased from the Shanghai University of Traditional Chinese Medicine with Institutional Animal Care and Use Committee approval in accordance with institutional guidelines. All mice were randomly divided into four groups. In #1 group (4 mice), 1 × 10^8 cells/mL from U-87 MG at the logarithmic growth phase were harvested and inoculated subcutaneously, followed by intraperitoneal injection of 100 μL of 15 (25 mg/kg) every 2 days. In #2 group (4 mice), 1 × 10^8 cells/mL from U-87 MG at the logarithmic growth phase were harvested and inoculated subcutaneously, followed by intraperitoneal injection of 100 μL of saline every 2 days. In #3 group (4 mice), 1 × 10^8 cells/mL from SKOV-3 at the logarithmic growth phase were harvested and inoculated subcutaneously, followed by intraperitoneal injection of 100 μL 15 (25 mg/kg) every 2 days. In #4 group (4 mice), 1 × 10^8 cells/mL from SKOV-3 at the logarithmic growth phase were harvested and inoculated subcutaneously, followed by intraperitoneal injection of 100 μL of saline every 2 days. After continuous feeding for 40 days, the mice were sacrificed, and the tumors were removed. The tumors were weighed, and the volumes were calculated using the following formula: Tumor volume (cm^3) = (ab^2)/2 (a: the longest axis (cm), b: the shortest axis (cm)).
(§2) Briefly, fresh tissues were immersed in 4% paraformaldehyde (Sigma-Aldrich) for fixation at room temperature for 30 min. The tissues were then dehydrated in an ethanol gradient, embedded in paraffin, sectioned (thickness: 6 μm), and immersed in xylene for dewaxing. Tissue sections were blocked with immunohistochemical blocking solution (Beyotime Biotechnology Co., Ltd., Zhejiang, China) at 37 °C for 30 min. The blocking solution was then discarded, and the sections were washed three times at room temperature for 5 min, each with immunohistochemical washing solution (Beyotime Biotechnology). Then, primary antibodies (rabbit anti-GPX4 antibody [EPNCIR144] (ab125066), rabbit anti-ferritin heavy chain antibody [EPR18878] (ab183781), and rabbit anti-Ki67 antibody (ab15580), Abcam, MA, USA) were added and incubated at 37 °C for 45 min. After incubation, the antibody solution was discarded, and the sections were washed three times at room temperature for 5 min each with immunohistochemical washing solution (Beyotime Biotechnology). Then, the secondary antibody (goat anti-rabbit IgG H&L (Alexa Fluor 488), Abcam, MA, USA) was added, and the tissues were incubated at 37 °C for 45 min. After incubation, the antibody solution was discarded, and the sections were washed three times at room temperature for 5 min, each with immunohistochemical washing solution (Beyotime Biotechnology). Finally, immunofluorescence blocking solution (Sigma-Aldrich) was added, and the sections were mounted.
(§3) According to the instructions of the RNAprep pure Tissue Kit (TIANGEN Biotech (Beijing) China) Co., Ltd., Beijing, China), to about 20 mg of […] tissue specimen was added 800 μL of lysis solution, and the mixture was ground, homogenized, and centrifuged. To the supernatant, 200 μL of chloroform was added, and the mixture was mixed by inverting and centrifuged at 4 °C at 13,400 × g for 15 min. To the supernatant, two volumes of absolute ethanol were added, mixed by inversion, and centrifuged at 4 °C at 13,400 × g for 30 min. Ethanol precipitation and centrifugation of the supernatant were repeated. The RNA pellet was suspended with 500 μL of 75% ethanol and centrifuged at 13,400 × g at 4 °C for 5 min. The supernatant was discarded, the excess liquid was removed, and the pellet was dissolved in 300 μL of DECP water. One microliter of the RNA solution was used to measure the ratio of A260–A280 (generally 1.8–2.0) to determine the purity and approximate concentration of the RNA. […]

[1] = tested on: PARP cleavage in OVCAR-3 cells; experiment: PARP cleavage by western blot in OVCAR-3 cells; type: cell-based, human; settings: immunoblotting
Description: Western blotting was performed as previously described[68] by lysing cells in denaturing buffer sodium dodecyl sulfate (SDS)–urea. Extracts were sonicated, their protein quantified, and aliquots were loaded into an SDS–polyacrylamide gel. After electrophoresis, the proteins in the gel were transferred onto a nitrocellulose membrane (cat. no. NBA085C001EA, PerkinElmer), which then was blocked with 5% milk in TBS-T (Tris HCl with 0.1% Tween 20) and incubated with primary antibodies overnight: PARP antibody diluted 1:1000 (cat. no. 9542S CST) and actin antibody diluted 1:10,000 (cat. no. A5441, Sigma Aldrich). The next day, the membrane was extensively washed with TBS-T and incubated with horse radish peroxidase (HRP)-conjugated secondary antibodies diluted in the 5% milk solution. Detection of the HRP signal was performed using ECL (cat. no. K-12045-D50, Advansta).

tubulin = experiment: Inhibition of [3H]colchicine binding to tubulin; settings: inhibitor at 1:5:5 μM
Description: The assembly reaction mixtures contained 0.8 M monosodium glutamate (pH 6.6 with HCl in a 2 M stock solution), 10 μM tubulin, 4% (v/v) DMSO, and varying concentrations of the drug. Following a 15 min preincubation at 30 °C, samples were chilled on ice, GTP to 0.4 mM was added, and turbidity development was followed at 350 nm in a temperature-controlled recording spectrophotometer for 20 min at 30 °C. The extent of reaction was measured. Full experimental details were previously described.[63] For the colchicine binding assay, reaction mixtures contained 1.0 μM tubulin, 5.0 μM [^3H]colchicine, and 5.0 or 1.0 μM inhibitor and were incubated for 10 min at 37 °C. Complete details were described previously.[64]

U-87 MG = experiment: In vivo U-87 MG xenograft, tumor size and tumor tissue analysis; parameters: species or system BALB/C^nu/nu mice
Description: as §1, §2, §3

[2] = 25 mg/kg i.p. every 2 days, day 40

COc1cc(C(=O)c2cn(-c3ncccn3)cc2-c2ccco2)cc(OC)c1OC [Compound 15, (4-(Furan-2-yl)-1-(pyrimidyl-2-yl)-1H-pyrrol-3-yl)(3,4,5-trimethoxyphenyl)methanone]
ATP level in tumor tissue vs control (SKOV-3; 25 mg/kg i.p. every 2 days): significantly lower | Fe2+ concentration in tumor tissue vs control (SKOV-3; 25 mg/kg i.p. every 2 days): significantly higher | LPO level in tumor tissue vs control (SKOV-3; 25 mg/kg i.p. every 2 days): appreciably higher | MDA level in tumor tissue vs control (SKOV-3; 25 mg/kg i.p. every 2 days): appreciably higher | T-GSH level in tumor tissue vs control (SKOV-3; 25 mg/kg i.p. every 2 days): significantly lower | lactic acid level in tumor tissue vs control (SKOV-3; 25 mg/kg i.p. every 2 days): appreciably higher | tumor size (volume and weight) vs saline control (SKOV-3; [2]): significantly smaller | CD31 expression in tumor tissue vs control (SKOV-3; immunofluorescence staining): significantly lower expression | FTH1 expression in tumor tissue vs control (SKOV-3; immunofluorescence staining): significantly lower expression | GPX4 expression in tumor tissue vs control (SKOV-3; immunofluorescence staining): significantly lower expression | Ki67 expression in tumor tissue vs control (SKOV-3; immunofluorescence staining): significantly lower expression | concentration from which cleaved PARP increases [1]: ≥ 5 nM | Inhib. colch. binding 1-5-5 (% ± SD) (tubulin): 88 ± 0.4% | ATP level in tumor tissue vs control (U-87 MG; 25 mg/kg i.p. every 2 days): significantly lower | Fe2+ concentration in tumor tissue vs control (U-87 MG; 25 mg/kg i.p. every 2 days): significantly higher | LPO level in tumor tissue vs control (U-87 MG; 25 mg/kg i.p. every 2 days): appreciably higher | MDA level in tumor tissue vs control (U-87 MG; 25 mg/kg i.p. every 2 days): appreciably higher | T-GSH level in tumor tissue vs control (U-87 MG; 25 mg/kg i.p. every 2 days): significantly lower | lactic acid level in tumor tissue vs control (U-87 MG; 25 mg/kg i.p. every 2 days): appreciably higher | tumor size (volume and weight) vs saline control (U-87 MG; [2]): significantly smaller | CD31 expression in tumor tissue vs control (U-87 MG; immunofluorescence staining): significantly lower expression | FTH1 expression in tumor tissue vs control (U-87 MG; immunofluorescence staining): significantly lower expression | GPX4 expression in tumor tissue vs control (U-87 MG; immunofluorescence staining): significantly lower expression | Ki67 expression in tumor tissue vs control (U-87 MG; immunofluorescence staining): significantly lower expression
